Experimental findings from US20250171457A1, “NITROGEN-CONTAINING HETEROCYCLIC COMPOUND HAVING NRF2 ACTIVATION EFFECT” (CHUGAI SEIYAKU KABUSHIKI KAISHA, priority 2022, published 2025) are described below.

In the experiment the test system is Nrf2 transcriptional activity (pARE-Luc reporter) in HepG2 cells. The experiment is described as follows: In vitro Nrf2 transcriptional activity measurement by ARE-dependent reporter assay in HepG2 cell. The experiment is classed as cell-based, human. Particulars: Homo sapiens; HepG2 cells transfected with pARE-Luc, 4 hours at 37° C.; luciferase activity of Example 1-54 or Example 17-23 at 3.75 μM defined as 100%. In short, it runs like this:
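Luminescence readout (Bright-Glo) after 4 h, 37° C compound exposure of HepG2 cells carrying the ARE-luciferase vector pGL4.37. Each well converted to % response versus reference compound at 3.75 μM, and EC50 derived from dose-response curves.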
Background: A reporter such as luciferase makes a cellular process visible.
As a reminder, the EC50 is the concentration giving half of the maximal effect. A higher EC50 goes with a less potent agent. `CCOc1cc(Cl)c(C(=O)N2COc3c(cccc3-c3cc(N4CCOCC4)c(C(=O)O)cc3F)C2)cc1OC` [Compound 4-54, 4-[3-(2-Chloro-4-ethoxy-5-methoxybenzoyl)-2,4-dihydro-1,3-benzoxazin-8-yl]-5-fluoro-2-morpholin-4-ylbenzoic acid] showed an EC50 of 1.2 nM.
The value for `COCCOc1cc(Cl)c(C(=O)N2COc3c(cccc3-c3cc(N4CCOCC4)c(C(=O)O)cc3F)C2)cc1OC` [Compound 4-55, 4-[3-[2-Chloro-5-methoxy-4-(2-methoxyethoxy)benzoyl]-2,4-dihydro-1,3-benzoxazin-8-yl]-5-fluoro-2-morpholin-4-ylbenzoic acid] was 2 nM; that for `COC1CC2(C1)CN(c1cc(Cl)c(C(=O)N3COc4c(cccc4-c4cc(N5CC6CCC(C5)O6)c(C(=O)O)cc4F)C3)c(Cl)c1)C2` [Compound 4-56, 4-[3-[2,6-Dichloro-4-(6-methoxy-2-azaspiro[3.3]heptan-2-yl)benzoyl]-2,4-dihydro-1,3-benzoxazin-8-yl]-5-fluoro-2-(8-oxa-3-azabicyclo[3.2.1]octan-3-yl)benzoic acid] was 1.9 nM; that for `CC1(N2CCN(c3cc(Cl)c(C(=O)N4COc5c(cccc5-c5cc(N6CCOCC6)c(C(=O)O)cc5F)C4)c(Cl)c3)CC2)COC1` [Compound 4-57, 4-[3-[2,6-Dichloro-4-[4-(3-methyloxetan-3-yl)piperazin-1-yl]benzoyl]-2,4-dihydro-1,3-benzoxazin-8-yl]-5-fluoro-2-morpholin-4-ylbenzoic acid] was 4.8 nM.
The value for `O=C(O)c1cc(F)c(-c2cccc3c2OCN(C(=O)c2c(Cl)cc(N4CC(N5CCOCC5)C4)cc2Cl)C3)cc1N1C2CCC1COC2` [Compound 4-58, 4-[3-[2,6-Dichloro-4-(3-morpholin-4-ylazetidin-1-yl)benzoyl]-2,4-dihydro-1,3-benzoxazin-8-yl]-5-fluoro-2-(3-oxa-8-azabicyclo[3.2.1]octan-8-yl)benzoic acid] was 5.2 nM; that for `O=C(O)c1cc(F)c(-c2cccc3c2OCN(C(=O)c2c(Cl)cc(N4CCN(C5COC5)CC4)cc2Cl)C3)cc1N1C2CCC1COC2` [Compound 4-59, 4-[3-[2,6-Dichloro-4-[4-(oxetan-3-yl)piperazin-1-yl]benzoyl]-2,4-dihydro-1,3-benzoxazin-8-yl]-5-fluoro-2-(3-oxa-8-azabicyclo[3.2.1]octan-8-yl)benzoic acid] was 12 nM.
Compound `CN1CCN(c2cc(Cl)c(C(=O)N3COc4c(cccc4-c4cc(N5C6CCC5COC6)c(C(=O)O)cc4F)C3)c(Cl)c2)CC1` [Compound 4-60, 4-[3-[2,6-Dichloro-4-(4-methylpiperazin-1-yl)benzoyl]-2,4-dihydro-1,3-benzoxazin-8-yl]-5-fluoro-2-(3-oxa-8-azabicyclo[3.2.1]octan-8-yl)benzoic acid] displayed an EC50 of 7.5 nM.
The value for `COC1COC2(CN(c3cc(Cl)c(C(=O)N4COc5c(cccc5-c5cc(N6C7CCC6COC7)c(C(=O)O)cc5F)C4)c(Cl)c3)C2)OC1` [Compound 5-3, 4-[3-[2,6-Dichloro-4-(7-methoxy-5,9-dioxa-2-azaspiro[3.5]nonan-2-yl)benzoyl]-2,4-dihydro-1,3-benzoxazin-8-yl]-5-fluoro-2-(3-oxa-8-azabicyclo[3.2.1]octan-8-yl)benzoic acid] was 9.5 nM; that for `O=C(O)c1cc(F)c(-c2cccc3c2OCN(C(=O)c2c(Cl)cc(N4CC5(C4)OCCO5)cc2Cl)C3)cc1N1C2CCC1COC2` [Compound 5-4, 4-[3-[2,6-Dichloro-4-(5,8-dioxa-2-azaspiro[3.4]octan-2-yl)benzoyl]-2,4-dihydro-1,3-benzoxazin-8-yl]-5-fluoro-2-(3-oxa-8-azabicyclo[3.2.1]octan-8-yl)benzoic acid] was 2.4 nM; that for `O=C(O)c1cc(F)c(-c2cccc3c2OCN(C(=O)c2c(Cl)cc(N4CC5(C4)OCC4(CC4)CO5)cc2Cl)C3)cc1N1C2CCC1COC2` [Compound 5-5, 4-[3-[2,6-Dichloro-4-(5,10-dioxa-8-azaspiro[2.2.36.23]undecan-8-yl)benzoyl]-2,4-dihydro-1,3-benzoxazin-8-yl]-5-fluoro-2-(3-oxa-8-azabicyclo[3.2.1]octan-8-yl)benzoic acid] was 1 nM.
